Here are results for three compounds from the supplement of paper PMC10981050.

Each structure is given as a SMILES string. “And” between values parts separate entries of the source, which are not always exact repeats. Equal entries are not always repeated. ± gives the standard deviation of the averaged measurements.

Holding throughout (experiment): cell viability relative to vehicle control; higher = less cytotoxic
The subject of experiment [1] is OCI-AML2. Particulars: SRSF2 genotype: SRSF2 WT. The method, then:
(§1)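 Isogenic SRSF2 WT and CRISPR SRSF2 P95 mutant clones of MOLM14, OCI-AML2 and MARIMO were exposed to ROCK inhibitors at 7 doses (0.037 to 29.9 µM) for 48 h. Viability was read by CellTiter-Glo luminescence and normalised to the vehicle control on each plate (%).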

The test system of experiment [2] is MOLM14. The method, then:
as §1

Experiment [3] deals with MARIMO. Particulars: SRSF2 genotype: SRSF2 WT. How it is done: as §1
[4] abbreviates: 0.037 µM, SRSF2 genotype: SRSF2 WT.
The mark [5] stands for this setting: 0.129 µM, SRSF2 genotype: SRSF2 WT.
The mark [6] stands for this setting: 0.369 µM, SRSF2 genotype: SRSF2 WT.
[7] abbreviates: 0.997 µM, SRSF2 genotype: SRSF2 WT.
[8] abbreviates: 3.49 µM, SRSF2 genotype: SRSF2 WT.
Where [9] appears, read: 9.97 µM, SRSF2 genotype: SRSF2 WT.
The mark [10] stands for this setting: 29.9 µM, SRSF2 genotype: SRSF2 WT.

Broadly, the cell viability is a read-out of living cells in per cent, often relative to untreated cells. `CC1=C(C(=O)Nc2cc3cn[nH]c3cc2F)C(c2ccc(C(F)(F)F)cc2)CC(=O)N1` (stereo not given): the cell viability in experiment [1] (0.037 µM) turned out to be 107 ± 1.6%; in experiment [1] (0.129 µM), 101 ± 5%; in experiment [1] (0.369 µM), 96.9 ± 7.2%; in experiment [1] (0.997 µM) it was 93.11 ± 0.21%; in experiment [1] (3.49 µM), 68 ± 7.8%; in experiment [1] (9.97 µM), 43.5 ± 9.3%. Besides, the cell viability in experiment [1] (29.9 µM) is 39.4 ± 6%; in experiment [2] (0.037 µM, SRSF2 genotype: SRSF2 P95 mutant), 112% and 102% and 97.1%; in experiment [2] (setting [4]), 94 ± 18%; in experiment [2] (0.129 µM, SRSF2 genotype: SRSF2 P95 mutant), 107% and 105% and 103%; in experiment [2] (setting [5]), 96.4 ± 9.5%; in experiment [2] (setting [6]), 90.1 ± 19%. Also, the cell viability was 82.5 ± 16% in experiment [2] (setting [7]); 66.2 ± 16% in experiment [2] (setting [8]); 60.3 ± 14% in experiment [2] (setting [9]); 53 ± 13% in experiment [2] (setting [10]); 103 ± 1.2% in experiment [3] (0.037 µM); 100.4 ± 0.44% in experiment [3] (0.129 µM). For the same compound, the cell viability in experiment [3] (0.369 µM) stood at 96 ± 7.2%; in experiment [3] (0.997 µM), 103 ± 5.5%; in experiment [3] (3.49 µM), 98.9 ± 4.7%; in experiment [3] (9.97 µM), 92.2 ± 11%; in experiment [3] (29.9 µM) it was 95 ± 8.2%.
`CC1=C(C(=O)Nc2ccc3[nH]ncc3c2)C(c2ccc(F)cc2)NC(=O)N1` (stereo not given): the cell viability came to 110 ± 6.1% in experiment [1] (0.037 µM); 103 ± 7.4% in experiment [1] (0.129 µM); 102 ± 4.6% in experiment [1] (0.369 µM); 101 ± 6.8% in experiment [1] (0.997 µM); 78.3 ± 5.9% in experiment [1] (3.49 µM); 48.1 ± 6.7% in experiment [1] (9.97 µM). In addition, the cell viability in experiment [1] (29.9 µM) was 39 ± 4.3%; in experiment [2] (setting [4]) it was 96.5 ± 12%; in experiment [2] (setting [5]) it was 96.7 ± 4.2%; in experiment [2] (setting [6]), 102 ± 14%; in experiment [2] (setting [7]), 95.8 ± 12%; in experiment [2] (setting [8]) it was 78.3 ± 14%. The cell viability in experiment [2] (setting [9]) came out at 66.3 ± 14%; in experiment [2] (setting [10]), 54.9 ± 10%; in experiment [3] (0.037 µM), 102.6 ± 0.94%; in experiment [3] (0.129 µM), 102 ± 2.7%; in experiment [3] (0.369 µM) it was 100 ± 2.2%; in experiment [3] (0.997 µM) it was 101 ± 4.8%. For the same compound, the cell viability was determined as 96.1 ± 2.5% in experiment [3] (3.49 µM), 97.6 ± 13% in experiment [3] (9.97 µM) and 99.8 ± 5.5% in experiment [3] (29.9 µM).
With `C[C@@H](N)c1ccc(C(=O)Nc2ccnc3[nH]ccc23)cc1`, the cell viability in experiment [1] (0.037 µM) worked out at 104 ± 7.8%; in experiment [1] (0.129 µM) it was 99.9 ± 1%; in experiment [1] (0.369 µM), 93.2 ± 4.4%; in experiment [1] (0.997 µM), 85 ± 1.9%; in experiment [1] (3.49 µM) it was 52 ± 2%; in experiment [1] (9.97 µM), 30.4 ± 4.6%. Further, the cell viability in experiment [1] (29.9 µM) came to 7.89 ± 0.6%; in experiment [2] (setting [4]), 90.1 ± 21%; in experiment [2] (setting [5]), 94 ± 13%; in experiment [2] (setting [6]), 87.1 ± 18%; in experiment [2] (setting [7]), 81.4 ± 17%; in experiment [2] (setting [8]), 51.8 ± 14%. Also, the cell viability in experiment [2] (setting [9]) is 29.4 ± 7.5%; in experiment [2] (setting [10]) it was 7.13 ± 1.6%; in experiment [3] (0.037 µM) it was 99.5 ± 4.6%; in experiment [3] (0.129 µM) it was 101 ± 3.1%; in experiment [3] (0.369 µM) it was 96.2 ± 1.6%; in experiment [3] (0.997 µM), 101 ± 1.3%. In addition, the results for the cell viability in experiment [3] (3.49 µM), in experiment [3] (9.97 µM) and in experiment [3] (29.9 µM) were 93.99 ± 0.9%, 84.1 ± 7.2% and 35.1 ± 0.58%, respectively.
